Data set [1] concerns T cells (CD4+ and CD8+) in NHL blood. As to the kind of experiment: CD69 expression on T cells, NHL peripheral whole blood, anti-CD3/anti-CD28 stimulation (IFC). Type of data set: cell-based, human. The following applies: 200 μM overnight, anti-CD3/anti-CD28 6 hours. How it is done: (§1) Both tubes were mixed well. The treated blood mixture was transferred at 3 mL per well to a 6-well polystyrene culture plate (Falcon, cat. #353046) and incubated overnight in a humidified incubator at 37° C. with 5% CO2.
(§2) The solution was mixed by pipetting with a 1 mL pipette. The plates were incubated in a humidified incubator at 37° C. with 5% CO2 for an additional 6 hours.
(§3) The next day, blood was treated with anti-CD3 and anti-CD28 stimulatory antibodies for 6 hours as described in Example 1 or left untreated. After treatment with the stimulatory antibodies, the red blood cells were lysed using multi-species lysis buffer, and the white blood cells were stained with anti-CD4 and anti-CD8 antibodies to label T cells and an anti-CD69 antibody to measure early T cell activation. Frequency of CD69-positive T cells (CD4+ and CD8+) was measured by IFC.

Data set [2] relates to NF-κB (p50) nuclear translocation in B (CLL) cells. As to the kind of experiment: NF-κB nuclear translocation in B cells from CLL PBMCs, anti-IgM 6 hours (Example 6). Type of data set: cell-based, human. Conditions: CLL PBMC, overnight compound. The procedure: Cells were then treated with anti-IgM or left untreated for 6 hours. After stimulation, PBMC were fixed using CytoFix buffer and permeabilized using 0.1% Triton X-100 solution. Cells were then stained with anti-CD19 to label B (CLL) cells, anti-CD4 and anti-CD8 to label T cells, Hoechst 33342 to label nuclei, and anti-p105/p50 to label NF-kB subunit. Samples were analyzed on ImageStreamX to evaluate NF-kB nuclear localization in B cells or T cells. […] Statistical significance was determined using Student's t-test in Microsoft Excel.

Data set [3] concerns proteases, caspases, protein kinases, and G-protein-coupled receptors. As to the kind of experiment: Binding inhibition panel at single dose. Conditions: single dose of either 1 μM or 10 μM.
For data set [4], the system named is NF-κB2, TNFSF10, APOE, PYCARD expression. As to the kind of experiment: Gene expression in T-cells and PBMCs purified from NHL blood without stimulation (Example 9). The data set is classed as cell-based, human. The following applies: no stimulation, 24 hours. How it is done: Peripheral blood was collected from five NHL patients, and the peripheral blood was allowed to stand overnight. Then, the peripheral blood was treated for 24 hours with a MALT inhibitor or DMSO control. PBMCs were purified from the unstimulated blood using a ficoll density gradient and T-cells were purified using CD3 Beads (Miltenyi) using the manufacturers protocol. Purified cells were lysed in RLTplus (Qiagen) and RNA was extracted from the purified cells using an AllPrep kit (Qiagen). Gene expression was measured using 100 ng of RNA in the Pan-Cancer Immune Profiling kit (NanoString) according to the manufacturer's instructions. Gene expression signatures were compared between the MALT inhibitor treated and DMSO treated samples.

The test system of data set [5] is MALT1 regulated gene expression in CLL whole blood. Conditions: 200 μM 24 h, anti-CD3/CD28 four hours.
Procedure: (§4) Peripheral blood was collected from three NHL and two CLL patients. […] Prior to stimulation and following stimulation, the treated blood was transferred into a PAXgene tube (Qiagen; Hilden, Germany) and RNA was extracted using the PAXgene RNA kit. Gene expression was measured using 100 ng of RNA extracted from the whole blood in the Pan-Cancer Immune Profiling kit (NanoString; Seattle, Wash.) according to the manufacturer's instructions.
Data set [6] in a line: Oral bioavailability (description).
The test system of data set [7] is MALT1 regulated gene expression in NHL whole blood. Conditions: 200 μM 24 h, anti-CD3/CD28 four hours.
Procedure: as §4
For data set [8], the system named is NF-κB (p50) nuclear translocation in T cells. Nature of the data set: NF-kB nuclear translocation in T cells from NHL whole blood by imaging flow cytometry (Example 4). Type of data set: cell-based, human. The procedure:
as §2
Frozen or fresh cells treated with the experimental conditions were obtained. For example, T cells in blood samples could be activated and the PBMCs containing the activated T cells could be isolated using the method described in Example 1. Alternatively, PBMCs in blood samples could be activated and subject to the imaging flow cytometry analysis directly without isolation. If the samples were whole blood, a minimum of 1 mL of blood was used for each test in this experiment. However, less than 1 mL whole blood can also be used in the assay. […]
The samples were imaged on an AMNIS® […]® X Mark II imaging flow cytometer (MilliporeSigma, Burlington, Mass.) immediately, using 60× magnification, and the data was analyzed in IDEAS software using an internalization module, e.g., to evaluate frequency of CD4+ and CD8+ T cells or CLL cells with nuclear enrichment of p50.
The next day, the mixture samples were treated with anti-CD3 and anti-CD28 stimulatory antibodies following a procedure as that described in Example 1. […] Samples were analyzed on ImageStreamX to evaluate NF-κB nuclear localization in the CD4 and the CD8 positive T cells.
(Flow cytometry measures light scatter and fluorescence of single cells or particles in a stream.)

Data set [9] concerns NF-κB (p50) nuclear translocation in CD19-positive B (CLL) cells. As to the kind of experiment: NF-κB nuclear translocation in B cells from CLL PBMCs, anti-IgM 30 minutes (Example 5). Conditions: 6 hours compound. Type of data set: cell-based, human. How it is done: Alternatively, B cells can also be activated by beads coated with anti-IgM antibody. After the stimulation, PBMCs were fixed using CytoFix buffer and permeabilized using 0.1% Triton X-100 solution. Cells were then stained with anti-CD19 to label B (CLL) cells, Hoechst 33342 to label nuclei, and anti-p105/p50 to label NF-κB subunit. Samples were analyzed on ImageStreamX to evaluate NF-κB nuclear localization in the CD19-positive cells. […] Statistical significance was determined using Student's t-test in Microsoft Excel.

The subject of a further data set is DLBCL cell lines. Nature of the data set: Growth of DLBCL cell lines in vitro (nonclinical studies). The data set is classed as cell-based.
For data set [10], the system named is MALT1 regulated gene expression in NHL whole blood. The following applies: 100 μM 2 h, PMA-stimulated samples.
Procedure: Then, aliquots were stimulated with CD3 and CD28 antibodies (1 ug/ml each), PMA (20 ng/ml) and Ionomycin (1 μg/mL), or unstimulated (PBS) for four hours. Following stimulation, the treated blood was transferred into a PAXgene tube (Qiagen; Hilden, Germany) and RNA was extracted using the PAXgene RNA kit.
Gene expression was measured using 100 ng of RNA extracted from the whole blood in the Pan-Cancer Immune Profiling kit (NanoString; Seattle, Wash.) according to the manufacturer's instructions. Gene expression was normalized across samples using NanoString nSolver software. […] Briefly, log2-scaled, normalized NanoString counts were fit to a linear model (which incorporated the patient of origin) and moderated t-statistics, along with the associated Benjamini-Hochberg (BH) corrected p-values, were computed by empirical Bayes moderation of the standard errors towards a common value.
Data set [11] relates to T cells (CD4+ and CD8+) in normal blood. As to the kind of experiment: CD69 expression on T cells, normal peripheral whole blood, anti-CD3/anti-CD28 stimulation (IFC). Type of data set: cell-based, human. Conditions: 200 μM overnight, anti-CD3/anti-CD28 6 hours. The procedure: as §1, §2, §3
Data set [12] deals with IL2, an NF-κB regulated gene. Nature of the data set: IL2 expression in purified T-cells and PBMCs from NHL blood (Example 8). Type of data set: cell-based, human. The following applies: T-cells and PBMC from NHL blood; 24 hours; anti-CD3/CD28 six hours. The procedure:
The effect of a MALT inhibitor was analyzed utilizing gene expression signatures from purified T-cells and PBMCs from Non-Hodgkin's lymphoma patients. Peripheral blood was collected from five NHL patients, and the peripheral blood was allowed to stand overnight. Then, the peripheral blood was treated for 24 hours with a MALT inhibitor or DMSO control. The blood was then stimulated with monoclonal antibodies against CD3 and CD28 for six hours. Prior to stimulation and following stimulation, PBMC were purified from the treated blood using a ficoll density gradient and T-cells were purified using CD3 Beads (Miltenyi) using the manufacturers protocol. Purified cells were lysed in RLTplus (Qiagen) and RNA was extracted from the purified cells using an AllPrepkit (Qiagen). Gene expression was measured using 100 ng of RNA in the Pan-Cancer Immune Profiling kit (NanoString) according to the manufacturer's instructions.

For data set [13], the system named is NF-κB proteins (p50 and RelB) in CLL cells. The following applies: CLL cells treated in vitro; ELISA; cited from earlier work. Background: In an ELISA, binding on a coated surface is turned into a signal by an enzyme label.

With `O=C(Nc1ccnc(C(F)(F)F)c1)c1cnn(-c2cccc3c(=O)[nH]ccc23)c1C(F)(F)F` [Compound A, 1-(1-oxo-1,2 dihydroisoquinolin-5-yl)-5 (trifluoromethyl)-N-[2 (trifluoromethyl)pyridin-4 yl]-1H-pyrazole-4 carboxamide], the “surface expression of CD69 on T cells” value in data set [1] was “significantly inhibited”. Further, in data set [2], the “NF-κB nuclear translocation in B cells activated by anti-IgM” value is recorded as “inhibited”. Further, the “binding inhibition of proteases, caspases, protein kinases, and G-protein-coupled receptors” value in data set [3] is reported as “did not show significant binding inhibition”. For the same compound, in [4] (purified PBMCs), the APOE expression entry is recorded as “repressed” and the PYCARD expression result is “repressed”. In data set [4] (purified T-cells), the NF-κB2 expression entry was “repressed” and the TNFSF10 expression result was “repressed”. Further, in [5], the “stimulation induced upregulation of CXCL10” value is “repressed”. For the same compound, the oral bioavailability result in [6] is on record as “orally bioavailable”. Moreover, in data set [7], the “stimulation induced upregulation of CXCL10” value is given as “repressed”. Further, the “NFκB nuclear translocation in T cells (canonical NF-κB signaling)” value in data set [8] (CD3/CD28 stimulation, dosage dependent) is listed as “completely blocked”. Also, the IC50 in [8] (Homo sapiens, T-cell, overnight, CD3/CD28 stimulation 6 h, read-out: IC50, NFκB nuclear translocation in T cells) was roughly 9.5 µM. Also, in data set [9], the “NF-κB nuclear translocation in activated B cells” value is on record as “inhibited”. Further, in the data set on DLBCL cell lines, the “growth of CD79b-mutant DLBCL cell lines” value was “inhibit growth” and the “growth of ibrutinib-resistant DLBCL cell lines harboring BTK C481S or CARD11 mutations” value is recorded as “inhibit growth”. Further, in [10], the “gene expression of ICOS, POU2F2, CCR4, and CTLA4” value was “downregulated”; the genes upregulated result is given as “no genes were significantly upregulated”. Besides, the “surface expression of CD69 on CD4+ and CD8+ T cells” value in data set [11] is given as “not affected”. For the same compound, the “stimulation induced upregulation of IL2” value in data set [12] was “repressed”.
For `COCCOc1nc(-c2ccc(Cl)c(Cl)c2)n(-c2ccc(NC(=O)CCl)cc2)n1` [MI-2], in [13], the “nuclear translocation of NF-κB proteins (p50 and RelB)” value is reported as “suppress”.

Broadly, the IC50 is the point on the concentration scale where inhibition reaches its midpoint.
